Data on twelve compounds can be found in US4880807A, “Nicotinoylpiperazines useful for treatment of convulsions” (Institut De Recherches Chimiques et Biologiques Appliquees …, priority 1987, dated 1989).

Data set [1] deals with convulsions induced by supra maximal electroshock (MCE). The experiment in a line: animal or person. As to conditions: for Therapeutic index MCE (LD50/ED50): LD50 per os/ED50 per os, MCE convulsions; for ED50: Mus musculus, read-out: ED50 in respect of convulsions induced by MCE, per os, male mice, 30 min after administration, electrical stimulation of the cornea, dose protecting 50% of animals; for ED50 / ED50 in respect of convulsions induced by MCE: po, 0.5 h. The protocol: (§1) The anticonvulsant properties were investigated on male mice, thirty minutes after the oral administration of the substances to be studied, by the induction of convulsive seizures.
These seizures are caused either by the intraperitoneal injection of pentetrazole (125 mg/kg) or by electrical stimulation of the cornea (supra maximal electroshock, abbreviated to MCE).

The nature of data set [2]: oral toxicity in mice (LD50, mortality over 14 days). As to conditions: mouse, in vivo, po. The protocol: (§2) The toxicity of the products to be studied was investigated by the oral administration, using an esophageal tube, of each of the said products to male mice with a body weight of 18 to 22 g, divided into groups each containing 10 to 20 animals. The mortality was recorded over a 14-day period.

Data set [3] deals with male mice. The experiment in a line: in vivo. It is filed as in vivo. From the text: (§3) The animals (divided into groups each containing ten male mice per dose and per product) are installed on the rod and their fall is observed over the next two minutes.
Data set [4] in a line: in vivo. As to conditions: mouse, rota-rod, po, per os, male mice, Rota-rod 30 min after administration; dose causing 50% of animals to fall; read-out: TD50 (50% neurotoxic dose). Format: in vivo.
Description: as §3
For orientation: The rotarod test checks motor coordination on a turning rod.

Data set [5] deals with convulsions induced by pentetrazole. Briefly: animal or person. To be noted: for Therapeutic index PTZ (LD50/ED50): LD50 per os/ED50 per os, PTZ convulsions; for ED50: Mus musculus, read-out: ED50 in respect of convulsions induced by PTZ, per os, male mice, 30 min after administration, pentetrazole 125 mg/kg i.p., dose protecting 50% of animals; for ED50 / ED50 in respect of convulsions induced by PTZ: po, 0.5 h; for therapeutic indices compared with reference products: in words, PTZ and MCE, reference: sodium valproate and trimethadione.
Description: as §1

The test system of data set [6] is male mice. Briefly: oral toxicity in mice (LD50, mortality over 14 days). As to conditions: oral (esophageal tube), male mice, groups of 10 to 20, 14 days; Table II. Here is the method: as §2
[7] abbreviates: LD50, oral (esophageal tube), male mice, groups of 10 to 20, 14 days, Table II.
Setting [8] is: LD50, per os, male mice, repeated in Table IV.
Setting [9] is: TD50 per os/ED50 per os, MCE convulsions.
Where [10] appears, read: TD50 per os/ED50 per os, PTZ convulsions.

As for `Cl.Cl.O=C(c1cccnc1)N1CCN(c2cccc(C(F)(F)F)c2)CC1` [Ex. 1, 1-nicotinoyl-4-(3-trifluoromethylphenyl)piperazine dihydrochloride], in data set [1], the “Therapeutic index MCE (LD50/ED50)” value was 30.2 and the ED50 is 19 mg/kg. In data set [2] (setting [7]), this compound displayed an LD50 at 336 h of 575 mg/kg. For the same compound, in data set [2] (setting [8]), the LD50 at 336 h came to 575 mg/kg. Besides, the “Protection index MCE (TD50/ED50)” value in data set [3] (setting [9]) is recorded as 8.1. For the same compound, the “Protection index PTZ (TD50/ED50)” value in data set [3] (setting [10]) is 9.1. In addition, the “protection indices compared with reference products” value in data set [3] (mouse, in vivo) was “better than those of the reference products”. Besides, the TD50 at 0.5 h in data set [4] amounted to 154 mg/kg. In addition, in data set [5], the “Therapeutic index PTZ (LD50/ED50)” value was 33.8, the ED50 came out at 17 mg/kg and the “therapeutic indices compared with reference products” value is “better than those of the reference products”.

With `O=C(c1cccnc1)N1CCN(c2cccc(Cl)c2)CC1` [Ex. 2, 4-(3-chlorophenyl)-1-nicotinoylpiperazine], the figures for the ED50 in data set [1] and in data set [5] were 78 mg/kg and 50 mg/kg, respectively. Moreover, the LD50 at 336 h in data set [2] (setting [7]) came out at 501 mg/kg.

With `Cc1cccc(N2CCN(C(=O)c3cccnc3)CC2)c1C` [Ex. 3], the ED50 in data set [1] was above 200 mg/kg; in data set [5], 110 mg/kg. In data set [2] (setting [7]), the LD50 at 336 h was above 1000 mg/kg.

With `O=C(c1cccnc1)N1CCN(c2ccccc2Cl)CC1` [Ex. 4], the ED50 came out at 200 mg/kg in data set [1] and 160 mg/kg in data set [5]. Also, the LD50 at 336 h in data set [2] (setting [7]) is above 1000 mg/kg.

In the case of `CCOc1ccccc1N1CCN(C(=O)c2cccnc2)CC1` [Ex. 5], the ED50 in data set [1] and in data set [5] was above 200 mg/kg throughout. The compound also registered a 50% lethal dose (LD50) at 336 h in data set [2] (setting [7]) of 1000 mg/kg.

In the case of `O=C(c1cccnc1)N1CCN(c2cccc(C(F)(F)F)c2)CC1` [Ex. 6, 1-nicotinoyl-4-(3-trifluoromethylphenyl)piperazine], in data set [1], the “Therapeutic index MCE (LD50/ED50)” value was 21.1 and the ED50 is 20 mg/kg. Moreover, the LD50 at 336 h in data set [2] (setting [7]) stood at 422 mg/kg. In data set [2] (setting [8]), the LD50 at 336 h stood at 422 mg/kg. Also, the “Protection index MCE (TD50/ED50)” value in data set [3] (setting [9]) was 6.0. Moreover, in data set [3] (setting [10]), the “Protection index PTZ (TD50/ED50)” value is given as 9.1. Moreover, the “protection indices compared with reference products” value in data set [3] (mouse, in vivo) is “better than those of the reference products”. In data set [4], the TD50 at 0.5 h stood at 119 mg/kg. In addition, in data set [5], the “Therapeutic index PTZ (LD50/ED50)” value came to 32.5, the ED50 is 13 mg/kg and the “therapeutic indices compared with reference products” value is on record as “better than those of the reference products”.

As to `O=C(c1cccnc1)N1CCN(c2ccc(C(F)(F)F)cc2)CC1` [Ex. 7], the ED50 in data set [1] and in data set [5] was above 200 mg/kg each time. The same compound displayed an LD50 at 336 h in data set [2] (setting [7]) above 1000 mg/kg.

Take `O=C(c1cccnc1)N1CCN(c2ccccc2F)CC1` [Ex. 8]: in data set [1], the “Therapeutic index MCE (LD50/ED50)” value was found to be 5.6 and the ED50 was determined as 180 mg/kg. Further, in data set [2] (setting [7]), the LD50 at 336 h is 1000 mg/kg. The compound also came in with a median lethal dose (LD50) at 336 h in data set [2] (setting [8]) of 1000 mg/kg. In addition, in data set [3] (mouse, in vivo, po), the “Protection index MCE (TD50/ED50)” value amounted to 2.8 and the “Protection index PTZ (TD50/ED50)” value is 2.8. Also, the TD50 at 0.5 h in data set [4] is 500 mg/kg. Also, in data set [5], the “Therapeutic index PTZ (LD50/ED50)” value is recorded as 5.6 and the ED50 came out at 180 mg/kg.

Take `O=C(c1cccnc1)N1CCN(c2ccccc2F)CC1` [Ex. 9]: the “ED50 in respect of convulsions induced by MCE” value in data set [1] is listed as above 200 mg/kg. Further, in data set [6], the median lethal dose (LD50) is reported as above 1000 mg/kg. Moreover, the “ED50 in respect of convulsions induced by PTZ” value in data set [5] was above 200 mg/kg.

Turning to `O=C(c1cccnc1)N1CCN(c2ccc(F)cc2)CC1` [Ex. 10, 4-(4-fluorophenyl)-1-nicotinoylpiperazine], the values for the ED50 in data set [1] and in data set [5] were 75 mg/kg and 62 mg/kg, respectively. In data set [2] (setting [7]), this compound came in with an LD50 at 336 h of 600 mg/kg.

As for `O=C(c1cccnc1)N1CCN(c2ccc(F)cc2)CC1` [Ex. 11, 4-(4-fluorophenyl)-1-nicotinoylpiperazine], the “ED50 in respect of convulsions induced by MCE” value in data set [1] amounted to 75 mg/kg. In data set [2], the LD50 at 336 h turned out to be 625 mg/kg. For the same compound, the “ED50 in respect of convulsions induced by PTZ” value in data set [5] is 68 mg/kg.

Regarding `O=C(c1cccnc1)N1CCN(c2ccccc2C(F)(F)F)CC1` [Ex. 12], the ED50 in data set [1] and in data set [5] was above 200 mg/kg each time. In data set [2] (setting [7]), this compound came in with an LD50 at 336 h above 1000 mg/kg.

Broadly, the LD50 is the dose at which mortality reaches 50%. A low value points to greater toxicity. A word on the TD50: it is the dose at which the toxic effect under study appears in half of the subjects.
